Reference: patent US20230303497A1, “BENZYLAMINE OR BENZYL ALCOHOL DERIVATIVE AND USES THEREOF” (CHENGDU HYPERWAY PHARMACEUTICALS CO., LTD, priority 2020, published 2023)

target: human NaV1.8 ion channel (Homo sapiens (Human), UniProt Q9Y5Y9); test: Compound inhibition activity on human NaV1.8 ion channel in HEK293 cells (whole-cell patch clamp); format: cell-based; conditions: 100 nm concentration; HEK293 cells, resting protocol
Experimental: Test Case 1: Compound Inhibition Activity on Human NaV1.8 Ion Channel in HEK293 Cells
The final concentrations of the test compounds are prepared on the same day and then dissolved in extracellular solution. […] The intracellular solution (mM) contains: Aspartic acid, 140; MgCl2, 2; EGTA 11; HEPES, 10; pH 7.2 (CsOH titration). All test solutions contain 1 μM TTX.
The test solution are stored at a concentration of 3 mM in dimethyl sulfoxide (DMSO). The solutions will be dissolved in extracellular solution on the day of testing and prepared to the required concentration.
All experiments were performed at room temperature. Each cell itself is taken as the corresponding control.
At least one cell is tested per concentration.
HEK293 cell steady expressing NaV1.8 ion channel.
The intracellular fluid (mM) contains: Aspartic acid, 140; MgCl2, 2; EGTA 11; HEPES, 10; pH 7.2 (CsOH titration). […] Electrodes are drawn with PC-10 (Narishige, Japan). Recording is performed with whole-cell diaphragm clamp.
The cells are clamped at −80 mV and then depolarized to 10 mV with a sustained 10 ms square wave to give a Nav1.8 current. This procedure is repeated every 5 seconds.

human NaV1.8 ion channel, sequence (Q9Y5Y9 whole entry): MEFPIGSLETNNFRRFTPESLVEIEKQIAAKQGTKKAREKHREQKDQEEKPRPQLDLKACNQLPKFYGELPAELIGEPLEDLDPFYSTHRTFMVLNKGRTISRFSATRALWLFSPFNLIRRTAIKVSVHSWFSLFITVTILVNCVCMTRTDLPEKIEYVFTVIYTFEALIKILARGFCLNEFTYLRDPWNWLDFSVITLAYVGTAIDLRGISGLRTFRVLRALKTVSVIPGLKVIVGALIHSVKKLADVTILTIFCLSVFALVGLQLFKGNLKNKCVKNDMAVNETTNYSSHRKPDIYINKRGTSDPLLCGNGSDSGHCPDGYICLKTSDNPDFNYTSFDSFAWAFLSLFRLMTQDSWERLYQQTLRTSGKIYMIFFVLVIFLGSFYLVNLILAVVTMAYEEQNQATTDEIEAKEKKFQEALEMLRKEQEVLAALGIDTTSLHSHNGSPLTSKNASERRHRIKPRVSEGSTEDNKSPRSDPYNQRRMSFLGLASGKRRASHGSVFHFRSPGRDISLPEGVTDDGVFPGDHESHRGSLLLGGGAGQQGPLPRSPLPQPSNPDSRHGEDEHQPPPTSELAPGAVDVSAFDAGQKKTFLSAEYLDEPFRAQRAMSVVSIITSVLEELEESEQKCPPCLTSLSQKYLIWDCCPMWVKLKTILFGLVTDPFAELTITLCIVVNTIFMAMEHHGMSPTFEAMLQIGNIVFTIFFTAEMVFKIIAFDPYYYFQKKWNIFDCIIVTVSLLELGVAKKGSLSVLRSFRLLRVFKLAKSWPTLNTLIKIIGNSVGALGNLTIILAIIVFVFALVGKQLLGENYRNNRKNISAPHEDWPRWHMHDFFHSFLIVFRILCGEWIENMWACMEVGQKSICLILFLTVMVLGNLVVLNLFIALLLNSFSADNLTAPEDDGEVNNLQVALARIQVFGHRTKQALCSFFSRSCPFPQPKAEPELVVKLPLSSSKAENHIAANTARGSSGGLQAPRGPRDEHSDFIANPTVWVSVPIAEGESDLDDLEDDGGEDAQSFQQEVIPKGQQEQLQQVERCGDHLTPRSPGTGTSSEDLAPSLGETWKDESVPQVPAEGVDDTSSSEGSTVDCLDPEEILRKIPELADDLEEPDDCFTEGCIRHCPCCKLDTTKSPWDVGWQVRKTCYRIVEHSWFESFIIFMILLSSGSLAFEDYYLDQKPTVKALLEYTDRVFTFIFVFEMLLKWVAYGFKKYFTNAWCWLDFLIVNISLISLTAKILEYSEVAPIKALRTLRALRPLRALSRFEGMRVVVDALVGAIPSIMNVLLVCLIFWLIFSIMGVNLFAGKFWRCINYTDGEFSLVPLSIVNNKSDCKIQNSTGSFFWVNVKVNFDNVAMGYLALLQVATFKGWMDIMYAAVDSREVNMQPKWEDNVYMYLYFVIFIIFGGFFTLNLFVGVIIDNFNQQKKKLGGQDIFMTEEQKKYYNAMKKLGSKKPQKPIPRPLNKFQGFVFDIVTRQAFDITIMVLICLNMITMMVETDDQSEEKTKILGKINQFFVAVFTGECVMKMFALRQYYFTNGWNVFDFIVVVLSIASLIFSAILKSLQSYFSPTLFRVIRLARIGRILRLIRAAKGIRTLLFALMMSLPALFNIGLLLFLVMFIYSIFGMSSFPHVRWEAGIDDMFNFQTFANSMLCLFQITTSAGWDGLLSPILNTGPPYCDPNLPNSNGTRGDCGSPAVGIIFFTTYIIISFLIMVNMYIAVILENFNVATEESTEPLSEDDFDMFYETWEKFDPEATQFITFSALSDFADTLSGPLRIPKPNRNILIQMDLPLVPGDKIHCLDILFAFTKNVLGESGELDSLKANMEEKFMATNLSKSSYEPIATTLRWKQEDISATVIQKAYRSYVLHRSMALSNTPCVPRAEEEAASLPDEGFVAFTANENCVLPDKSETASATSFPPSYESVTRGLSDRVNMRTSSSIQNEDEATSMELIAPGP

Compound | Inhibition ratio of Nav1.8 (Activity of inhibition)
Cc1cc(F)ccc1Oc1ccc(C(F)(F)F)cc1C(=O)Nc1ccc(F)c(C2CCCN2)c1 (stereo not drawn) [Example 15, 2-(4-fluoro-2-methylphenoxy)-N-(4-fluoro-3-(pyrrolidin-2-yl)phenyl)-5-(trifluoromethyl) benzamide] | C (50 >C >= 20)
N-(3-(1-amino-3-fluoropropyl)-4-fluorophenyl)-4-cyclopropyl-2-(4-fluoro-2-methyl phenoxy)-5-(trifluoromethyl) benzamide [Example 21] | B (80 > B >= 50)

same assay, conditions: 100 nm concentration; HEK293 cells, resting protocol; read-out: Inhibition ratio of Nav1.8 (Activity of inhibition)

inhibition at 0.1 µM [%] | Compound
20 to 50 | Cc1cc(F)ccc1Oc1cc(C2CC2)c(C(F)(F)F)cc1C(=O)Nc1ccc(F)c(C(C)CCO)c1 (stereo not drawn) [Example 28, 4-cyclopropyl-2-(4-fluoro-2-methylphenoxy)-N-(4-fluoro-3-(4-hydroxybutan-2-yl)phenyl)-5-(trifluoromethyl) benzamide]
> 80 | Cc1cc(F)ccc1Oc1cc(C2CC2)c(C(F)(F)F)cc1C(=O)Nc1ccc(F)c(C(N)C(F)CO)c1 (stereo not drawn) [Example 22, N-(3-(1-Amino-2-fluoro-3-hydroxypropyl)-4-fluorophenyl)-4-cyclopropyl-2-(4-fluoro-2-methylphenoxy)-5-(trifluoromethyl) benzamide]
50 to 80 | Cc1cc(F)ccc1Oc1cc(C2CC2)c(C(F)(F)F)cc1C(=O)Nc1ccc(F)c(C(F)CCO)c1 (stereo not drawn) [Example 31, 4-Cyclopropyl-2-(4-fluoro-2-methylphenoxy)-N-(4-fluoro-3-(1-fluoro-3-hydroxypropyl)phenyl)-5-(trifluoromethyl) benzamide]
50 to 80 | Cc1cc(F)ccc1Oc1ccc(C(F)(F)F)cc1C(=O)Nc1ccc(F)c(C(C)N)c1 (stereo not drawn) [Example 14, N-(3-(1-aminoethyl)-4-fluorophenyl)-2-(4-fluoro-2-methylphenoxy)-5-(trifluoromethyl) benzamide]
< 20 | Cc1cc(F)ccc1Oc1ccc(C(F)(F)F)cc1C(=O)Nc1ccc(F)c(C(N)CC(=O)O)c1 (stereo not drawn) [Example 2, 3-Amino-3-(2-fluoro-5-(2-(4-fluoro-2-methylphenoxy)-5-(trifluoromethyl)benzamido)phenyl) propanoic acid]
> 80 | Cc1cc(F)ccc1Oc1cc(C2CC2)c(C(F)(F)F)cc1C(=O)Nc1ccc(F)c(C(N)C(N)=O)c1 (stereo not drawn) [Example 9, 4-Cyclopropyl-N-(3-(1,2-diamino-2-oxoethyl)-4-fluorophenyl)-2-(4-fluoro-2-methylphenoxy)-5-(trifluoromethyl) benzamide]
> 80 | CNC(=O)C(N)c1cc(NC(=O)c2ccc(C(F)(F)F)cc2Oc2ccc(F)cc2C)ccc1F (stereo not drawn) [Example 42]
> 80 | Cc1cc(F)ccc1Oc1ccc(C(F)(F)F)cc1C(=O)Nc1ccc(F)c(C(C)C(N)=O)c1 (stereo not drawn) [Example 27, N-(3-(1-Amino-1-oxopropan-2-yl)-4-fluorophenyl)-2-(4-fluoro-2-methylphenoxy)-5-(trifluoromethyl) benzamide]
> 80 | CNC(CCO)c1cc(NC(=O)c2cc(C(F)(F)F)c(C3CC3)cc2Oc2ccc(F)cc2C)ccc1F (stereo not drawn) [Example 7, 4-Cyclopropyl-2-(4-fluoro-2-methylphenoxy)-N-(4-fluoro-3-(3-hydroxy-1-(methylamino)propyl)phenyl)-5-(trifluoromethyl) benzamide]

same assay, conditions: 100 nm concentration; HEK293 cells, resting protocol; read-out: Inhibition ratio of compounds against Nav1.8 (Activity of inhibition)

inhibition at 0.1 µM [%] | Compound
50 to 80 | Cc1cc(F)ccc1Oc1cc(C2CC2)c(C(F)(F)F)cc1C(=O)Nc1ccc(F)c(OCc2ncc[nH]2)c1 [Example 74]
< 20 | Cc1cc(F)ccc1Oc1cc(C2CC2)c(C(F)(F)F)cc1C(=O)Nc1ccc(F)c(OCC(O)C(F)(F)F)c1 (stereo not drawn) [Example 60, 4-cyclopropyl-2-(4-fluoro-2-methylphenoxy)-N-(4-fluoro-3-(3,3,3-trifluoro-2-hydroxypropoxy)phenyl)-5-(trifluoromethyl) benzamide]
50 to 80 | Cc1cc(F)ccc1Oc1cc(C(F)(F)F)ccc1C(=O)Nc1ccnc(OC[C@H](O)CO)c1 [Example 108]
50 to 80 | Cc1cc(F)ccc1Oc1cc(C2CC2)c(C(F)(F)F)cc1C(=O)Nc1ccc(F)c(OCC(O)CNC23CC(C2)C3)c1 (stereo not drawn) [Example 93]
> 80 | COc1cc(OC(F)(F)F)ccc1Oc1cc(C(F)(F)F)c(Cl)cc1C(=O)Nc1ccnc(OC[C@H](O)CO)c1 [Example 121]
20 to 50 | Cc1cc(F)ccc1Oc1cc(C2CC2)c(C(F)(F)F)cc1C(=O)Nc1ccnc(C(F)(F)F)c1 [Example 69]
50 to 80 | Cc1cc(F)ccc1Oc1cc(C(F)(F)F)c(Cl)cc1C(=O)Nc1ccc(F)c(OC[C@@H](O)CNC(=O)CO)c1 [Example 118]
20 to 50 | Cc1cc(F)ccc1Oc1cc(C2CC2)c(C(F)(F)F)cc1C(=O)Nc1ccc(F)c(OCCNS(C)(=O)=O)c1 [Example 59, 4-cyclopropyl-2-(4-fluoro-2-methylphenoxy)-N-(4-fluoro-3-(2-(methylsulfonamido)ethoxy)phenyl)-5-(trifluoromethyl) benzamide]
20 to 50 | Cc1cc(F)ccc1Oc1cc(C2CC2)c(C(F)(F)F)cc1C(=O)Nc1ccnc(C(C)(C)O)c1 [Example 70]
50 to 80 | Cc1cc(F)ccc1Oc1cc(C2CC2)c(C(F)(F)F)cc1C(=O)Nc1ccc(F)c(OCC(O)CNC23CC4CC(CC(C4)C2)C3)c1 (stereo not drawn) [Example 94]
20 to 50 | Cc1cc(F)ccc1Oc1cc(C2CC2)c(C(F)(F)F)cc1C(=O)Nc1ccc(F)c(OCC2CCCN2)c1 (stereo not drawn) [Example 68]
50 to 80 | Cc1cc(F)ccc1Oc1cc(C2CC2)c(C(F)(F)F)cc1C(=O)Nc1ccc(F)c(C(C)CC(O)CNC(C)(C)C)c1 (stereo not drawn) [Example 54, N-(3-(5-(tert-butylamino)-4-hydroxypentan-2-yl)-4-fluorophenyl)-4-cyclopropyl-2-(4-fluoro-2-methylphenoxy)-5-(trifluoromethyl) benzamide]
> 80 | Cc1cc(F)ccc1Oc1cc(C2CC2)c(C(F)(F)F)cc1C(=O)Nc1ccc(F)c(C(N)CCNC(C)(C)C)c1 (stereo not drawn) [Example 66]
50 to 80 | Cc1cc(F)ccc1Oc1cc(C2CC2)c(C(F)(F)F)cc1C(=O)Nc1ccc(F)c(C(CCO)N2CCCC2)c1 (stereo not drawn) [Example 72]
50 to 80 | Cc1cc(F)ccc1Oc1cc(C(F)(F)F)ccc1C(=O)Nc1ccc(F)c(OCC(O)CNC(=O)CO)c1 (stereo not drawn) [Example 107]

Continued, compound first:

Compound | inhibition at 0.1 µM [%]
Cc1cc(F)ccc1Oc1cc(C2CC2)c(C(F)(F)F)cc1C(=O)Nc1ccc(F)c(C(C)CC(N)C(F)(F)F)c1 (stereo not drawn) [Example 53, N-(3-(4-Amino-5,5,5-trifluoropentan-2-yl)-4-fluorophenyl)-4-cyclopropyl-2-(4-fluoro-2-methylphenoxy)-5-(trifluoromethyl) benzamide] | < 20
Cc1cc(F)ccc1Oc1cc(C2CC2)c(C(F)(F)F)cc1C(=O)Nc1ccc(F)c(C2CCNC(=O)CN2)c1 (stereo not drawn) [Example 50] | 20 to 50

same assay, conditions: HEK293, read-out: Inhibition ratio of Nav1.8 (Activity of inhibition)

Compound | inhibition at 0.1 µM [%]
Cc1cc(F)ccc1Oc1ccc(C(F)(F)F)cc1C(=O)Nc1ccc(F)c(C(N)C(C)C(N)=O)c1 (stereo not drawn) [Example 4, N-(3-(1,3-Diamino-2-methyl-3-oxopropyl)-4-fluorophenyl)-2-(4-fluoro-2-methylphenoxy)-5-(trifluoromethyl) benzamide] | 50 to 80

same assay, conditions: HEK293, read-out: Inhibition ratio of compounds against Nav1.8 (Activity of inhibition)

Compound | inhibition at 0.1 µM [%]
Cc1cc(F)ccc1Oc1cc(C2CC2)c(C(F)(F)F)cc1C(=O)Nc1ccc(F)c(OCCOC(N)=O)c1 [Example 62, (2-(5-(4-Cyclopropyl-2-(4-fluoro-2-methylphenoxy)-5-(trifluoromethyl)benzamido)-2-fluorophenoxy)ethyl) carbamate] | 50 to 80
